Each structure is given as a SMILES string.

The first assay concerns the target T1, rat NaPi-2b (Rattus norvegicus, UniProt Q9JJ09).
T1 construct: expressed in transfected cells; host or cells: Xenopus oocytes injected with cRNA
T1 sequence (Q9JJ09 1-695): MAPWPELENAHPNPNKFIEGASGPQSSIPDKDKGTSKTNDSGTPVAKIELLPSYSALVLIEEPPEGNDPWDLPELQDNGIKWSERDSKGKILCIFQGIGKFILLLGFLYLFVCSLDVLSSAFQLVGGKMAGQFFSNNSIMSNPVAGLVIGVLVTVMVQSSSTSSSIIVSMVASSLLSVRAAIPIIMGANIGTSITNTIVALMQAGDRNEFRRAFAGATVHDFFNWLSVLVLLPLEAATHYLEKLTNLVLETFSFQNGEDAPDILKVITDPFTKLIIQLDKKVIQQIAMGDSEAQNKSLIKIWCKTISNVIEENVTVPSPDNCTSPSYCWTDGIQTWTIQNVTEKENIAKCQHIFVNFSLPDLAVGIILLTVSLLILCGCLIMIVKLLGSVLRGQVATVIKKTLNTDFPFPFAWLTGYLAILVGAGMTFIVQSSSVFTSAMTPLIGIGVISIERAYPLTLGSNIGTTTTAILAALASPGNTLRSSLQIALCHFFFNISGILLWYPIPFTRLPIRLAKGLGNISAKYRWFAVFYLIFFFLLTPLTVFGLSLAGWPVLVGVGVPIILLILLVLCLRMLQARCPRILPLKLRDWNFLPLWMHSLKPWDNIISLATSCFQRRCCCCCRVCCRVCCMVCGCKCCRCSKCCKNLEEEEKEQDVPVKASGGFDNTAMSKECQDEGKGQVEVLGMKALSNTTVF
Kind of assay: Sodium-dependent phosphate uptake of Xenopus oocytes which expressed NaPi-2b (32P). As to conditions: Xenopus oocytes expressing rat NaPi-2b, 32P radioactive phosphorus; read-out: IC50 (phosphate uptake inhibitory activity). In kind it is cell-based. The procedure, abridged:
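Percent inhibition at 300 μM and 100 μM comes from the same inhibition curve of 32P uptake. Assay used oocytes expressing rat NaPi-2b after 2 days of culture.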
Turning to `O=C(Nc1ccc(Br)cc1C(=O)N/N=C/c1ccc(F)cc1)c1cccc(CSc2nc[nH]n2)c1` [Compound 270, N-[4-Bromo-2-(4-fluoro-benzylidene-hydrazinocarbonyl)-phenyl]-3-(1H-[1,2,4]triazol-3-ylsulfanylmethyl)-benzamide], the IC50 (usually the midpoint of a concentration-inhibition curve) is 5.04 µM. The same measure, in the same setting: the result for `Cc1cccc(/C=N/NC(=O)c2ccccc2NC(=O)c2cccc(F)c2)c1` [Compound 83, 3-Fluoro-N-[2-(3-methyl-benzylidene-hydrazinocarbonyl)-phenyl]-benzamide] reads 2.98 µM; that for `COc1ccc(C(=O)Nc2ccccc2C(=O)N/N=C/c2ccccc2C)cc1OC` [Compound 3, 3,4-Dimethoxy-N-[2-(2-methyl-benzylidene-hydrazinocarbonyl)-phenyl]-benzamide], 7.15 µM. On the same count and under the same terms, with `Cc1cc(C(=O)Nc2ccccc2C(=O)N/N=C/c2cccc(F)c2)c(C)o1` [Compound 514, 2,5-Dimethyl-furan-3-carboxylic acid [2-(3-fluoro-benzylidene-hydrazinocarbonyl)-phenyl]-amide] the figure was 2.15 µM; with `Cc1ccc(/C=N/NC(=O)c2c(NC(=O)c3cccc(CN(CC(C)O)CC(C)O)c3)sc3c2CCC3)cc1C` (stereo not drawn) [Compound 804, 3-{[Bis-(2-hydroxy-propyl)-amino]-methyl}-N-[3-(3,4-dimethyl-benzylidene-hydrazinocarbonyl)-5,6-dihydro-4H-cyclopenta[b]thiophen-2-yl]-benzamide], 1.23 µM; with `Cc1ccc(/C=N/NC(=O)c2ccccc2NC(=O)c2ccc(F)cc2)cc1` [Compound 79, 4-Fluoro-N-[2-(4-methyl-benzylidene-hydrazinocarbonyl)-phenyl]-benzamide], 2.87 µM.

Take `O=C(Nc1ccc(Br)cc1C(=O)N/N=C/c1ccc(Cl)c(C(F)(F)F)c1)c1ccco1` [Compound 156, Furan-2-carboxylic acid [4-bromo-2-(4-chloro-3-trifluoromethyl-benzylidene-hydrazinocarbonyl)-phenyl]-amide]: the IC50 amounted to 0.46 µM. With `COc1cccc(/C=N/NC(=O)c2cc(Br)ccc2NC(=O)c2ccc(CN(CC(C)O)CC(C)O)cc2)c1` (stereo not drawn) [Compound 723, 4-{[Bis-(2-hydroxy-propyl)-amino]-methyl}-N-[4-bromo-2-(3-methoxy-benzylidene-hydrazinocarbonyl)-phenyl]-benzamide], the IC50 was determined as 18 µM. Same read-out and setting: the result for `CN1CCN(c2ccc(NC(=O)c3cccc(CSCCO)c3)c(C(=O)N/N=C/c3ccc(Cl)c(C(F)(F)F)c3)c2)CC1` [Compound 1072, N-[2-(4-Chloro-3-trifluoromethyl-benzylidene-hydrazinocarbonyl)-4-(4-methyl-piperazin-1-yl)-phenyl]-3-(2-hydroxy-ethylsulfanylmethyl)-benzamide] reads 3.88 µM; that for `Cc1ccc(/C=N/NC(=O)c2cc(OCCN3CCCCC3)ccc2NC(=O)c2cccc(CSCCO)c2)cc1` [Compound 1042, 3-(2-Hydroxy-ethylsulfanylmethyl)-N-[2-(4-methyl-benzylidene-hydrazinocarbonyl)-4-(2-piperidin-1-yl-ethoxy)-phenyl]-benzamide], 14.7 µM. Same read-out and setting: with `Cc1ccc(/C=N/NC(=O)c2cc(Cl)ccc2NC(=O)c2cccnc2)cc1C` [Compound 188, N-[4-Chloro-2-(3,4-dimethyl-benzylidene-hydrazinocarbonyl)-phenyl]-nicotinamide] the figure was 19.4 µM. For `COc1ccc(C(=O)Nc2ccccc2C(=O)N/N=C/c2cccc(C#N)c2)cc1OC` [Compound 9, N-[2-(3-Cyano-benzylidene-hydrazinocarbonyl)-phenyl]-3,4-dimethoxy-benzamide], the IC50 amounted to 4.26 µM. Same read-out and setting: with `O=C(Nc1ccccc1C(=O)N/N=C/c1cccc(F)c1)c1cccc(OC(F)(F)F)c1` [Compound 120] the figure was 2.55 µM; with `O=C(Nc1ccc(Br)cc1C(=O)N/N=C/c1ccc(F)cc1)c1ccccn1` [Compound 496, Pyridin-2-carboxylic acid [4-bromo-2-(4-fluoro-benzylidene-hydrazinocarbonyl)-phenyl]-amide], 0.64 µM; with `Cc1cccc(/C=N/NC(=O)c2cc(Br)ccc2NC(=O)c2ccc(CN3CCN(CC(=O)N4CCOCC4)CC3)cc2)c1` [Compound 729, N-[4-Bromo-2-(3-methyl-benzylidene-hydrazinocarbonyl)-phenyl]-4-[4-(2-morpholin-4-yl-2-oxo-ethyl)-piperazin-1-ylmethyl]-benzamide], 27.3 µM. With `Cc1cccc(/C=N/NC(=O)c2cc(Br)ccc2NC(=O)c2ccno2)c1` [Compound 511, Isoxazole-5-carboxylic acid [4-bromo-2-(3-methyl-benzylidene-hydrazinocarbonyl)-phenyl]-amide], the 50% inhibitory concentration (IC50) was determined as 2.16 µM. As for `CCN(CC)CCN(Cc1cccc(C(=O)Nc2sc3c(c2C(=O)N/N=C/c2ccc(Cl)c(C(F)(F)F)c2)CCCC3)c1)C(C)=O` [Compound 656, 3-{[Acetyl-(2-diethylamino-ethyl)-amino]-methyl}-N-[3-(4-chloro-3-trifluoromethyl-benzylidene-hydrazinocarbonyl)-4,5,6,7-tetrahydro-benzo[b]thiophen-2-yl]-benzamide], the IC50 worked out at 2.98 µM.

Consider `COc1ccc(/C=N/NC(=O)c2cc(N3CCCCC3)ccc2NC(=O)c2cccc(CN3CCN(CCO)CC3)c2)cc1` [Compound 869, 3-[4-(2-Hydroxy-ethyl)-piperazin-1-ylmethyl]-N-[2-(4-methoxy-benzylidene-hydrazinocarbonyl)-4-piperidin-1-yl-phenyl]-benzamide], for which the IC50 amounted to 6.68 µM. The same measure, in the same setting: with `Cc1ccc(/C=N/NC(=O)c2ccccc2NC(=O)c2cccc(F)c2)cc1C` [Compound 95, N-[2-(3,4-Dimethyl-benzylidene-hydrazinocarbonyl)-phenyl]-3-fluoro-benzamide] the figure was 1.27 µM; with `O=C(Nc1ccc(Br)cc1C(=O)N/N=C/c1ccc(F)cc1)c1ccc(CN2CCC(O)CC2)cc1` [Compound 327, N-[4-Bromo-2-(4-fluoro-benzylidene-hydrazinocarbonyl)-phenyl]-4-(4-hydroxy-piperidin-1-ylmethyl)-benzamide], 5.12 µM.

As for `CCc1ccc(C(=O)Nc2ccc(Br)cc2C(=O)N/N=C/c2cccc(F)c2)cc1` [Compound 178, N-[4-Bromo-2-(3-fluoro-benzylidene-hydrazinocarbonyl)-phenyl]-4-ethyl-benzamide], the IC50 was found to be 7.54 µM. On the same count and under the same terms, the result for `O=C(Nc1ccc(Br)cc1C(=O)NN=Cc1ccc(Cl)c(C(F)(F)F)c1)c1ccc(CNC(CN2CCOCC2)c2ccccc2)cc1` (stereo not drawn) [Compound 747, N-[4-Bromo-2-(4-chloro-3-trifluoromethyl-benzylidene-hydrazinocarbonyl)-phenyl]-4-[(2-morpholin-4-yl-1-phenyl-ethylamino)-methyl]-benzamide] reads 11.9 µM; that for `O=C(Nc1ccc(Br)cc1C(=O)N/N=C/c1ccc(Cl)c(C(F)(F)F)c1)c1cccc(CS(=O)(=O)CCO)c1` [Compound 678, N-[4-Bromo-2-(4-chloro-3-trifluoromethyl-benzylidene-hydrazinocarbonyl)-phenyl]-3-(2-hydroxy-ethanesulfonylmethyl)-benzamide], below 3 µM. With `CCN1CC(NCc2ccc(C(=O)Nc3ccc(Br)cc3C(=O)N/N=C/c3ccc(C)c(C)c3)cc2)CN1CC` [Compound 750, N-[4-Bromo-2-(3,4-dimethyl-benzylidene-hydrazinocarbonyl)-phenyl]-4-[(1,2-diethyl-pyrazolidin-4-ylamino)-methyl]-benzamide], the concentration for half-maximal inhibition (IC50) was below 3 µM. With `O=C(Nc1ccc(OCCCN2CCCCC2)cc1C(=O)N/N=C/c1ccc(Cl)c(C(F)(F)F)c1)c1cccc(CSCCO)c1` [Compound 1039, N-[2-(4-Chloro-3-trifluoromethyl-benzylidene-hydrazinocarbonyl)-4-(3-piperidin-1-yl-propoxy)-phenyl]-3-(2-hydroxy-ethylsulfanylmethyl)-benzamide], the IC50 stood at 2.76 µM.

The assay is the same for the next values; noted with them: phosphate uptake, oocytes expressing rat NaPi-2b; 300 μM, determined from inhibition curve.
Regarding `Cc1ccc(/C=N/NC(=O)c2cc(Cl)ccc2NC(=O)c2cccc(CN(C)CCCN(C)Cc3cccc(C(=O)Nc4ccc(Cl)cc4C(=O)N/N=C/c4ccc(C)cc4)c3)c2)cc1` [Compound 702, N1-[4-Chloro-2-({2-[(E)-1-(4-methylphenyl)methylidene]-hydrazino}carbonyl}phenyl}-3-{[{3-[(3-{[4-chloro-2-({2-[(E)-1-(4-methylphenyl)methylidene]hydrazino}carbonyl}anilino}carbonyl}benzyl}(methyl)amino)propyl)(methyl)amino]methyl]benzamide], the inhibition (usually the share of the control response that was lost under treatment) at 300 µM stood at 49.2%. `CN1CCCN(c2ccc3nc(-c4cccc(CSCCO)c4)n(/N=C/c4ccc(Cl)c(C(F)(F)F)c4)c(=O)c3c2)CC1` [Compound 932, 3-[(4-Chloro-3-trifluoromethyl-benzylidene)-amino]-2-[3-(2-hydroxy-ethylsulfanylmethyl)-phenyl]-6-(4-methyl-[1,4]diazepan-1-yl)-3 H-quinazolin-4-one] showed an inhibition at 300 µM of 36.1%.
